The target of one experiment is T1, Human MMP1 (Homo sapiens, UniProt P03956).
T1 construct: purchased Calbiochem 444208
T1 sequence (P03956 100-469): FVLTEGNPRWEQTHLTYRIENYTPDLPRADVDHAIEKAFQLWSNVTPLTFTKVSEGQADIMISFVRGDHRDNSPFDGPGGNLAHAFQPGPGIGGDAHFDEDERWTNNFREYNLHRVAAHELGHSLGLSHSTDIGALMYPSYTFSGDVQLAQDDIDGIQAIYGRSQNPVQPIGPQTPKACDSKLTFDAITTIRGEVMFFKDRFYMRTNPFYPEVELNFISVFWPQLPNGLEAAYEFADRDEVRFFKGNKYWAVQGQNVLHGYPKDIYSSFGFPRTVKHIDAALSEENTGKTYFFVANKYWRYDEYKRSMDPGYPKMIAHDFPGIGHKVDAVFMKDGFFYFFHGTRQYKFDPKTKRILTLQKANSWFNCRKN
Briefly: MMP1 inhibition experiment. Format: biochemical. Particulars: read-out: IC50 value MMP-1.

For a further experiment, the target named is T2, Human MMP3 (Homo sapiens, UniProt P08254).
T2 construct: purchased Calbiochem 444217
In words: MMP3 inhibition experiment. Particulars: concentration required for 50% inhibition of enzyme activity; read-out: IC50 value MMP-3. The format is biochemical. The procedure, abridged:
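Recombinant human MMP3 (5 ng) mixed with fluorogenic peptide NFF-3 (20 μM stock solution) and incubated 5 hours at 37° C; cleavage followed by fluorescence of the quenched substrate.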

A further experiment has as its target T3, Human MMP9 (Homo sapiens, UniProt P14780).
T3 construct: purchased Calbiochem 444231
In words: MMP9 inhibition experiment. Particulars: read-out: IC50 value MMP-9. Format: biochemical.

The target in a further experiment is T4, Human MMP13 (Homo sapiens, UniProt P45452).
T4 construct: purchased Chemicon CC068
In words: MMP13 inhibition experiment. Format: biochemical. The following applies: concentration required for 50% inhibition of enzyme activity; read-out: IC50 value MMP-13.

The next experiment deals with T5, Human MMP14 (Homo sapiens, UniProt P50281).
T5 construct: purchased Biogenesis or Calbiochem 5980-1461 or 475935
In words: MMP14 inhibition experiment. Format: biochemical. The following applies: concentration required for 50% inhibition of enzyme activity; read-out: IC50 value MMP-14. The procedure, abridged:
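Fluorescence assay: substrate Dnp-Pro-Cha-Gly-Cys(Me)-His-Ala-Lys(Nma)-NH2 (20 μM before equal-volume mixing) incubated at 37° C for 5 hours with 4 ng human MMP14.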

Another experiment concerns the target T6, Human MMP17 (Homo sapiens, UniProt Q9ULZ9).
T6 construct: purchased Calbiochem 475940
T6 sequence (Q9ULZ9 126-300 limits assumed): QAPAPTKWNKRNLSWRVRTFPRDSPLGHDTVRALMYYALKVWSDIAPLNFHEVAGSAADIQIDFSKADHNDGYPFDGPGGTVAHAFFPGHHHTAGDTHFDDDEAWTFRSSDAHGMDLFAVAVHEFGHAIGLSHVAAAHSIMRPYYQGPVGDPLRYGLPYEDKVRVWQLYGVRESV
Briefly: MMP17 inhibition test. The format is biochemical. The following applies: concentration required for 50% inhibition of enzyme activity; read-out: IC50 value MMP-17.

The test system of experiment [1] is TNF-α production (release). Briefly: Study for suppression of TNF-α production (release) in vivo. The following applies: male Lewis rats, LPS 1 mL/kg i.v.; test compound 3 mg/kg subcutaneous 30 minutes later; plasma TNF-α 90 minutes after LPS (ELISA).
Method: Lipopolysaccharide (LPS) from E. coli (available from SIGMA) was dissolved in physiological saline to prepare a solution of LPS (1 mg/mL). […] The rats received the LPS solution (1 mL/kg) intravenously, and 30 minutes later, the prepared solution of the test compound was administered subcutaneously (5 mL/kg, containing 3 mg of test compound/kg). 90 minutes after administration of LPS, blood was collected from the tail vein and centrifuged for 10 minutes at 3000 rpm at 4° C. to obtain plasma. The plasma TNF-α concentration was determined by an ELISA kit specific for rat TNF-α.
A further experiment has as its target T7, TACE (Homo sapiens, UniProt P78536).
T7 construct: made in house; host or cells: mammalian cells or insect cells
Briefly: TACE inhibition experiment (in vitro). The format is biochemical.

Another experiment deals with T8, Human MMP2 (Homo sapiens, UniProt P08253).
T8 construct: purchased Calbiochem 444213
T8 sequence (P08253 110-660): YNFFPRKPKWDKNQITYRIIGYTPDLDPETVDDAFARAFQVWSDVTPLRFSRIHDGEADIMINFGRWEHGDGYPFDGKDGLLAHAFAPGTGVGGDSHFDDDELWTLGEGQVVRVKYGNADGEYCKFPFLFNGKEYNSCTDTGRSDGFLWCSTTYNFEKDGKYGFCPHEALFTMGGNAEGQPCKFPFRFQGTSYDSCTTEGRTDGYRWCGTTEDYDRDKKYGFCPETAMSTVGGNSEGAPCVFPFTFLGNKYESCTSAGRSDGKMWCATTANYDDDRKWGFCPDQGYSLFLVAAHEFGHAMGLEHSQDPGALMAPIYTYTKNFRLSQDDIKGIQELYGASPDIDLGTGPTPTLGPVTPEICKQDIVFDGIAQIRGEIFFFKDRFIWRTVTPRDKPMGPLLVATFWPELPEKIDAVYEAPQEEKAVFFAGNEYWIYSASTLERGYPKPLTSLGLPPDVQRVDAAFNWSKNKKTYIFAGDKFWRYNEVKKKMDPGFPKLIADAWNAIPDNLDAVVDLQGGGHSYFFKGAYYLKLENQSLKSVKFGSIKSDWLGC
In words: MMP2 inhibition experiment. The following applies: concentration required for 50% inhibition of enzyme activity; read-out: IC50 value MMP-2. Format: biochemical.

The target of a further experiment is T9, Human MMP8 (Homo sapiens, UniProt P22894).
T9 construct: purchased Calbiochem 444229
Briefly: MMP8 inhibition experiment. The format is biochemical. The following applies: concentration required for 50% inhibition of enzyme activity; read-out: IC50 value MMP-8. The procedure, abridged: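 Human MMP8 activated with APMA for 1 h at 37° C, then incubated with fluorogenic peptide MOCAc-Pro-Leu-Gly-Leu-A2pr(Dnp)-Ala-Arg-NH2 (20 μM stock) for 5 hours at 37° C. Fluorescent substrate cleavage serves as read-out.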

Like-named read-outs stand apart in the source and are kept apart here.

T3 sequence (P14780 107-707 limits assumed): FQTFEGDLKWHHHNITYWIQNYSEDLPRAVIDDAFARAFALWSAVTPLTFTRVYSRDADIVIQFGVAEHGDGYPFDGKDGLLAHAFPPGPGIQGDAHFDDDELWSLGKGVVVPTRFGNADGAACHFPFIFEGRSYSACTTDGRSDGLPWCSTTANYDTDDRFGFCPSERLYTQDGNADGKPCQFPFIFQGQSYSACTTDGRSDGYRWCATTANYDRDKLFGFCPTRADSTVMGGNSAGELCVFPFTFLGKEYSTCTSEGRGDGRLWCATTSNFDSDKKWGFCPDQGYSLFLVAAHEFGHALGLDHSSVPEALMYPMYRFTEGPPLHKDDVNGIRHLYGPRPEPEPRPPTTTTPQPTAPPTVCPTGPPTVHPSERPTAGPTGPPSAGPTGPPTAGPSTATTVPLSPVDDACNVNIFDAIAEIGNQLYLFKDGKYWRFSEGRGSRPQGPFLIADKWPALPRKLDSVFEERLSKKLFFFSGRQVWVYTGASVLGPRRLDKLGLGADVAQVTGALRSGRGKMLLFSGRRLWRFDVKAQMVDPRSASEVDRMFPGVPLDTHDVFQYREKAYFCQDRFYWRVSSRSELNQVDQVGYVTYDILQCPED
T9 sequence (P22894 101-467): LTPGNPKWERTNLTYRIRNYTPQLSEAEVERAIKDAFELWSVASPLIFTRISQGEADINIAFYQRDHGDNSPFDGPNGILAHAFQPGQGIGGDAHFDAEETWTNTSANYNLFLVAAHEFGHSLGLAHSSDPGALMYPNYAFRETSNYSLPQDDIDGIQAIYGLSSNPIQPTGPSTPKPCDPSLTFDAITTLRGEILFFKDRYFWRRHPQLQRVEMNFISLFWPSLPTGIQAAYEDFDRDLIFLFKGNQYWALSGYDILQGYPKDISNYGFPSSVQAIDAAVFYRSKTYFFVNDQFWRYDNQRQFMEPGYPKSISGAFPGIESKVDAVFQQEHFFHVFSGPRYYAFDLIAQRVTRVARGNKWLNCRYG
T2 sequence (P08254 100-272 limits assumed): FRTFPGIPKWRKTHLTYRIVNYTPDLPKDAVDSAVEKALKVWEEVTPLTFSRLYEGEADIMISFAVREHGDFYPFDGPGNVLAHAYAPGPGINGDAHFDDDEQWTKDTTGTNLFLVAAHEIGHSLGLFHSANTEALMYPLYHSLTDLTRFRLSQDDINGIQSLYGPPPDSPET
T7 sequence (P78536 215-824): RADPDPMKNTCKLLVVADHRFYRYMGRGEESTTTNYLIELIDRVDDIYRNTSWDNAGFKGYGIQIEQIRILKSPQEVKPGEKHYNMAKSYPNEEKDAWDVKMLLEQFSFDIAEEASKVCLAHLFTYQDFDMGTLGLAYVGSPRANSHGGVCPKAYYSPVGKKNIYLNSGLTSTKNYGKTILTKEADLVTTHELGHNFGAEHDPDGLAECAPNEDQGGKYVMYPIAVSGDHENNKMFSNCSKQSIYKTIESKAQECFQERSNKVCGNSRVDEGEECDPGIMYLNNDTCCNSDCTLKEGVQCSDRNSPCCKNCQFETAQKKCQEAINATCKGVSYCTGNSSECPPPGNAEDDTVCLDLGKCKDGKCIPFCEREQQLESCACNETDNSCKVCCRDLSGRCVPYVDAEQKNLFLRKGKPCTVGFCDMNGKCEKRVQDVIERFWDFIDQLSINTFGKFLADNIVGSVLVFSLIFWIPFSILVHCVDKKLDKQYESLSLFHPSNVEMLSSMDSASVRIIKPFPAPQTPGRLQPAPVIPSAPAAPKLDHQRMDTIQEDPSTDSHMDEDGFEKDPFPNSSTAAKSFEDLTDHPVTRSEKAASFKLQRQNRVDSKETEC
Method for Human MMP13: Human MMP13 (Chemicon #CC068) in amount of 90 μL (200 ng) was activated by mixing with 10 μL of 10 mM APMA, followed by reaction for 1 hour at 37° C. This enzyme solution in amount of 0.6 μL was diluted to 90 μL with the assay buffer A, which was added to 90 μL of 20 μM fluorescent substrate (Dnp-Pro-Cha-Gly-Cys(Me)-His-Ala-Lys(Nma)-NH2) prepared in the assay buffer B, followed by reaction for 4 hours at 37° C.
Method for Human MMP2: This enzyme solution in amount of 10 μL was diluted to 90 μL with the assay buffer A, which was added to 90 μL of 20 μM fluorescent substrate (MOCAc((7-methoxycoumarin-4-yl)acetyl)-Pro-Leu-Gly-Leu-A2pr(Dnp)-Ala-Arg-NH2, Peptide Institute, Inc., #3163-v) prepared in the assay buffer B, followed by reaction for 5 hours at 37° C.
Method for Human MMP9: The methods of inhibition experiments carried out for various MMPs are described below.
This enzyme solution in amount of 1 μL was diluted to 90 μL with the assay buffer A, which was added to 90 μL of 20 μM fluorescent substrate (Dnp-Pro-Cha-Gly-Cys(Me)-His-Ala-Lys(Nma)-NH2) prepared in the assay buffer B, followed by reaction for 4 hours at 37° C.

By IC50 is commonly meant the concentration needed to halve the response being measured. Take `Cc1cc(COc2ccc(S(=O)(=O)CC(CC3CCC(=O)CC3)N(O)C=O)cc2)c2ccccc2n1` (stereo not drawn) [Example I-2, N-Hydroxy-N-[2-{4-(2-methylquinolin-4-ylmethoxy)benzenesulfonyl}-1-(4-oxocyclohexylmethyl)ethyl]formamide]: the IC50 at Human MMP1 stood at 60 µM; on Human MMP3, 1.5 µM; at Human MMP9 it was 50 µM; on Human MMP13, 6 µM; on Human MMP14, 53 µM; on Human MMP17, 0.4 µM. Besides, the “Suppression rate of TNF-α production (release) (%)” value in [1] worked out at 42.3%.

Regarding `Cc1cc(COc2ccc(S(=O)(=O)CC(C=C3CCN(CC(C)C)CC3)N(O)C=O)cc2)c2ccccc2n1` (stereo not drawn) [Example I-24, N-Hydroxy-N-{1-(1-isobutylpiperidin-4-ylidenemethyl)-2-[4-(2-methylquinolin-4-ylmethoxy)benzenesulfonyl]ethyl}formamide], the IC50 on TACE (concentration required for 50% inhibition of enzyme activity) was 0.006 µM; at Human MMP3, 10 µM; on Human MMP13 it was 40 µM; on Human MMP17, 4 µM. Besides, in [1], the “Suppression rate of TNF-α production (release) (%)” value was 56.0%.

On to `Cc1cc(COc2ccc(S(=O)(=O)CC(N(O)C=O)C3(C)CCC(O)CC3)cc2)c2ccccc2n1` (stereo not drawn) [Example I-137], for which the half-maximal inhibitory concentration (IC50) against TACE was 0.024 µM; on Human MMP1, more than 100 µM; at Human MMP2 it was more than 100 µM; on Human MMP3, 3.2 µM; at Human MMP8, 23 µM; at Human MMP9, more than 100 µM. In addition, the 50% inhibitory concentration (IC50) on Human MMP13 is 50 µM; at Human MMP14 it was more than 100 µM; on Human MMP17, 0.9 µM.

For `Cc1cccc(C(CS(=O)(=O)c2ccc(OCc3cc(C)nc4ccc(F)cc34)cc2)N(O)C=O)n1` (stereo not drawn) [Example I-149], the half-inhibitory concentration (IC50) was 0.03 µM on TACE; more than 100 µM at Human MMP1; 95 µM on Human MMP2; 26 µM at Human MMP3; more than 100 µM at Human MMP8; more than 100 µM on Human MMP9. Also, the values for the IC50 on Human MMP13, on Human MMP14 and on Human MMP17 were 35 µM, 90 µM and 23 µM, respectively.

`Cc1cncc(C(CS(=O)(=O)c2ccc(OCc3cc(C)nc4c(F)cccc34)cc2)N(O)C=O)c1` (stereo not drawn) [Example I-150]: the IC50 against TACE is 0.0025 µM; on Human MMP1 it was more than 100 µM; on Human MMP2 it was 34 µM; on Human MMP3, 4 µM; at Human MMP8, 27 µM; at Human MMP9 it was more than 100 µM. For the same compound, the IC50 on Human MMP13 stood at 18 µM; on Human MMP14, 58 µM; at Human MMP17 it was 2.4 µM.

These data come from US7511144B2, “Reverse hydroxamic acid derivatives” (Kaken Pharmaceutical Co., Ltd., priority 2001, dated 2009).
